Test results as given in patent US20100216699A1, “SEMI-SYNTHETIC GLYCOPEPTIDES HAVING ANTIBACTERIAL ACTIVITY” (LEAD THERAPEUTICS, INC., priority 2009, published 2010).
In brackets after ≈: the same amount, converted by molar mass. Read-outs that look alike come from different tables or passages of the source.

Columns and labels:
Format in all cases: cell-based
[1] = tested on: Staphylococcus epidermidis 831 (MRSE); assay: MIC by broth microdilution, SE 831; conditions: read-out: MIC SE 831
Source text: (§1) As used herein, the term “minimum inhibitory concentration” (MIC) refers to the lowest concentration of an antibiotic that is needed to inhibit growth of a bacterial isolate in vitro. A common method for determining the MIC of an antibiotic is to prepare several tubes containing serial dilutions of the antibiotic, that are then inoculated with the bacterial isolate of interest.
(§2) Antibacterial activity in vitro is investigated by broth microdilution method in Meuller-Hinton broth as recommended by NCCLS. All strains tested are clinical isolates either sensitive or resistant to natural glycopeptides. MIC values were determined using the CLSI-recommended broth microdilution procedure (Clinical and Laboratoratory Standards Institute, Methods for Dilution Antimicrobial Susceptibility Tests for Bacteria That Grow Aerobically; Approved Standard-Seventh Edition.). Automated liquid handlers (Multidrop 384, Labsystems, Helsinki, Finland; Biomek 2000 and Multimek 96, Beckman Coulter, Fullerton Calif.) were used to conduct serial dilutions and liquid transfers.

[2] = tested on: Streptococcus pneumoniae 1195 (penicillin sensitive); assay: MIC by broth microdilution, SPNE 1195; conditions: read-out: MIC SPNE 1195
Source text: as §1, §2

[3] = tested on: Enterococcus faecium 752 (VRE); assay: MIC by broth microdilution, EFCM 752; conditions: read-out: MIC EFCM 752
Source text: as §1, §2

[4] = tested on: Staphylococcus epidermidis 835 (MSSE); assay: MIC by broth microdilution, SE 835; conditions: read-out: MIC SE 835
Source text: as §1, §2

[5] = tested on: Enterococcus faecalis 101 (vancomycin sensitive); assay: MIC by broth microdilution, EFC 101; conditions: read-out: MIC EFC 101
Source text: as §1, §2

[6] = tested on: Enterococcus faecium 750 (vancomycin sensitive); assay: MIC by broth microdilution, EFCM 750; conditions: read-out: MIC EFCM 750
Source text: as §1, §2

[7] = tested on: Staphylococcus aureus 2012 (VISA); assay: MIC by broth microdilution, SA 2012; conditions: read-out: MIC SA 2012
Source text: as §1, §2

[8] = tested on: Staphylococcus aureus 100 (MSSA); assay: MIC by broth microdilution, SA 100; conditions: read-out: MIC SA 100
Source text: as §1, §2

[9] = tested on: Staphylococcus aureus 757 (MRSA); assay: MIC by broth microdilution, SA 757; conditions: read-out: MIC SA 757
Source text: as §1, §2

[10] = tested on: Enterococcus faecalis 848 (VRE); assay: MIC by broth microdilution, EFC 848; conditions: read-out: MIC EFC 848
Source text: as §1, §2

[11] = tested on: Streptococcus pyogenes 712 (penicillin sensitive); assay: MIC by broth microdilution, SPYO 712; conditions: read-out: MIC SPYO 712
Source text: as §1, §2

`CCCCCCCCNC(=O)NC(=O)C[C@@H]1NC(=O)[C@H](NC(=O)[C@@H](CC(C)C)NC)[C@H](O)c2ccc(c(Cl)c2)Oc2cc3cc(c2O)Oc2ccc(cc2Cl)[C@@H](O)[C@H]2NC(=O)[C@H](NC(=O)[C@@H]3NC1=O)c1ccc(O)c(c1)-c1c(O)cc(O)cc1[C@@H](C(=O)NC1C3CC4CC(C3)CC1C4)NC2=O` (stereo partly shown) [Compound 23] showed an MIC ([1]; Staphylococcus epidermidis 831 (MRSE), clinical isolate, Mueller-Hinton broth) of 1 µg/mL (≈ 0.698 µM), an MIC ([2]; Streptococcus pneumoniae 1195 (penicillin sensitive), clinical isolate, Mueller-Hinton broth) of 0.5 µg/mL (≈ 0.349 µM) and an MIC ([3]; Enterococcus faecium 752 (VRE), clinical isolate, Mueller-Hinton broth) of 2 µg/mL (≈ 1.4 µM). For the same compound, the MIC ([4]; Staphylococcus epidermidis 835 (MSSE), clinical isolate, Mueller-Hinton broth) was 2 µg/mL (≈ 1.4 µM), the MIC ([5]; Enterococcus faecalis 101 (vancomycin sensitive), clinical isolate, Mueller-Hinton broth) was 2 µg/mL (≈ 1.4 µM) and the MIC ([6]; Enterococcus faecium 750 (vancomycin sensitive), clinical isolate, Mueller-Hinton broth) was 1 µg/mL (≈ 0.698 µM). It also gave an MIC ([7]; Staphylococcus aureus 2012 (VISA), clinical isolate, Mueller-Hinton broth) of 2 µg/mL (≈ 1.4 µM), an MIC ([8]; Staphylococcus aureus 100 (MSSA), clinical isolate, Mueller-Hinton broth) of 2 µg/mL (≈ 1.4 µM) and an MIC ([9]; Staphylococcus aureus 757 (MRSA), clinical isolate, Mueller-Hinton broth) of 2 µg/mL (≈ 1.4 µM). It also gave an MIC ([10]; Enterococcus faecalis 848 (VRE), clinical isolate, Mueller-Hinton broth) of 2 µg/mL (≈ 1.4 µM) and an MIC ([11]; Streptococcus pyogenes 712 (penicillin sensitive), clinical isolate, Mueller-Hinton broth) of 0.25 µg/mL (≈ 0.175 µM).

`CN[C@H](CC(C)C)C(=O)N[C@H]1C(=O)N[C@@H](CC(N)=O)C(=O)N[C@H]2C(=O)N[C@H]3C(=O)N[C@H](C(=O)N[C@H](C(=O)O)c4cc(O)cc(O)c4-c4cc3ccc4O)[C@H](O)c3ccc(c(Cl)c3)Oc3cc2cc(c3O[C@@H]2O[C@H](CO)[C@@H](O)[C@H](O)[C@H]2O[C@H]2C[C@](C)(N)[C@H](O)[C@H](C)O2)Oc2ccc(cc2Cl)[C@H]1O` [Vancomycin, vancomycin] showed an MIC ([1]; Staphylococcus epidermidis, MRSE) of 2 µg/mL (≈ 1.38 µM), an MIC ([2]; Streptococcus pneumoniae) of 0.25 µg/mL (≈ 0.173 µM) and an MIC ([3]; Enterococcus faecium, VRE) greater than 64 µg/mL. For the same compound, the MIC ([4]; Staphylococcus epidermidis) was 2 µg/mL (≈ 1.38 µM), the MIC ([5]; Enterococcus faecalis) was 2 µg/mL (≈ 1.38 µM) and the MIC ([6]; Enterococcus faecium) was 1 µg/mL (≈ 0.69 µM). For the same compound, the MIC ([7]; Staphylococcus aureus, VISA) was 8 µg/mL (≈ 5.52 µM), the MIC ([8]; Staphylococcus aureus, MSSA) was 1 µg/mL (≈ 0.69 µM) and the MIC ([9]; Staphylococcus aureus, MRSA) was 1 µg/mL (≈ 0.69 µM). The MIC ([10]; Enterococcus faecalis, VRE) was greater than 64 µg/mL and the MIC ([11]; Streptococcus pyogenes) was 0.5 µg/mL (≈ 0.345 µM).
